Data from patent US9957265B2, “N-(2-cyano heterocyclyl) pyrazolo pyridones as janus kinase inhibitors” (Merck Sharp & Dohme Corp., priority 2013, dated 2018).
Read-outs that look alike come from different tables or passages of the source.

Tests used:
JAK2 = JAK2 (Homo sapiens (Human), UniProt O60674); experiment: Jak Biochemical HTRF Assay (JAK2)
Method: The ability of compounds to inhibit the activity of JAK1, JAK2, JAK3, and TYK2 was measured using a recombinant purified GST-tagged catalytic domain for each enzyme (Invitrogen JAK1 #M4290, JAK2 #M4290, JAK3 #M4290, TYK2 #M4290) in an HTRF format biochemical assay. […] Subsequent reagent additions employed an Agilent Bravo. […] After equilibration, 2 μL of 10×ATP in 1× assay buffer was added to initiate the kinase reaction and the plates were shaken and then incubated at room temperature for 120 minutes. […] After normalization to untreated controls, the percent inhibition of the HTRF signal at each compound concentration was calculated. The plot of percent inhibition versus the log of compound concentration was fit with a 4-parameter dose response equation to calculate IC50 values.
Final reaction conditions were:

JAK1 = JAK1 (Homo sapiens (Human), UniProt P23458); experiment: Jak Biochemical HTRF Assay (JAK1); conditions: recombinant GST-tagged catalytic domain, [ATP] 31.8 μM, unit not given (compound concentrations tested given in nM)
Excerpt: Jak Biochemical HTRF Assay Protocol
Subsequent reagent additions employed an Agilent Bravo.

[1] = JAK2 IC50, recombinant GST-tagged catalytic domain, [ATP] 8.5 μM, unit not given (compound concentrations tested given in nM)
[2] = read-out: JAK2 IC50, recombinant GST-tagged catalytic domain, [ATP] 8.5 μM, unit not given (compound concentrations tested given in nM)

JAK1, sequence (P23458 875-1153): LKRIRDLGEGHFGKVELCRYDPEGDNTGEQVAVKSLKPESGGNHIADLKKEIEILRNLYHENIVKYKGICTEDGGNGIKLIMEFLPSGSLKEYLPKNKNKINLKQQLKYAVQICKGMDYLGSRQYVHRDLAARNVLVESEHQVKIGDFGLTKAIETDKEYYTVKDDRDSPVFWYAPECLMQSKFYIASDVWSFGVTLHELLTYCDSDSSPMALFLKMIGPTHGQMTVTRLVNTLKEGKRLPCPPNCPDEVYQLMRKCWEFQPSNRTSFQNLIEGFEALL
JAK2, sequence (O60674 849-1124): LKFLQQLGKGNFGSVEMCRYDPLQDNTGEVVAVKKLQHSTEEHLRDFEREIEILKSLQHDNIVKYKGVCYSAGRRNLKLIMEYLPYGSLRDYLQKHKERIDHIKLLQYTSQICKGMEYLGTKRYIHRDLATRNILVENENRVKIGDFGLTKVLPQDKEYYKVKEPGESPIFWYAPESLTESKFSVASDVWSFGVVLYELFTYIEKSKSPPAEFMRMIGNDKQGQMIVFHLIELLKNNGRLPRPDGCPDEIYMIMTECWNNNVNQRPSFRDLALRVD

Row | Compound | IC50 (JAK2; [1]) | IC50 (JAK1) | IC50 (JAK2; [2])
1 | C[S+]([O-])c1cc(Nc2nn([C@H]3COCC[C@@H]3C#N)c3cc[nH]c(=O)c23)ccc1Cl (mixture of isomers) [Example 3-4, (3R,4S)-3-(3-{[4-chloro-3-((S and R)methylsulfinyl)phenyl]amino}-4-oxo-4,5-dihydro-1H-pyrazolo[4,3-c]pyridin-1-yl)tetrahydro-2H-pyran-4-carbonitrile] | 14.6 nM | 1.75 nM | –
2 | N#Cc1ccc(Nc2nn([C@H]3COCC[C@@H]3C#N)c3cc[nH]c(=O)c23)cc1 [Example 1-31, (3R,4S)-3-{3-[(4-cyanophenyl)amino]-4-oxo-4,5-dihydro-1H-pyrazolo[4,3-c]pyridin-1-yl}tetrahydro-2H-pyran-4-carbonitrile] | – | 0.12 nM | 0.96 nM
3 | CC(C)CN1Cc2ccc(Nc3nn([C@H]4COCC[C@@H]4C#N)c4cc[nH]c(=O)c34)cc2C1 [Example 1-14, (3R,4S)-3-(3-{[2-(2-methylpropyl)-2,3-dihydro-1H-isoindol-5-yl]amino}-4-oxo-4,5-dihydro-1H-pyrazolo[4,3-c]pyridin-1-yl)tetrahydro-2H-pyran-4-carbonitrile] | – | 0.22 nM | 0.41 nM
4 | N#C[C@H]1CCOC[C@@H]1n1nc(Nc2ccc(C(NC3CCCC3)C(F)(F)F)cc2)c2c(=O)[nH]ccc21 (single isomer, unassigned) [Example 1-84, (3R,4S)-3-[3-({4-[(1S or 1R)-1-(cyclopentylamino)-2,2,2-trifluoroethyl]phenyl}amino)-4-oxo-4,5-dihydro-1H-pyrazolo[4,3-c]pyridin-1-yl]tetrahydro-2H-pyran-4-carbonitrile] | 0.15 nM | 0.13 nM | –
5 | N#Cc1ccc(Nc2nn([C@H]3COCC[C@@H]3C#N)c3cc[nH]c(=O)c23)cc1F [Example 1-32, (3R,4S)-3-{3-[(4-cyano-3-fluorophenyl)amino]-4-oxo-4,5-dihydro-1H-pyrazolo[4,3-c]pyridin-1-yl}tetrahydro-2H-pyran-4-carbonitrile] | – | 0.24 nM | 2.11 nM
6 | CC1CCCN1C(c1ccc(Nc2nn([C@H]3COCC[C@@H]3C#N)c3cc[nH]c(=O)c23)cc1)C(F)(F)F (single isomer, unassigned) [Example 1-89, (3R,4S)-3-{4-oxo-3-[(4-{(1R or 1S)-2,2,2-trifluoro-1-[(2R or 2S)-2-methylpyrrolidin-1-yl]ethyl}phenyl)amino]-4,5-dihydro-1H-pyrazolo[4,3-c]pyridin-1-yl}tetrahydro-2H-pyran-4-carbonitrile] | 0.14 nM | 0.15 nM | –
7 | CC1CCCN1C(c1ccc(Nc2nn([C@H]3COCC[C@@H]3C#N)c3cc[nH]c(=O)c23)cc1)C(F)(F)F (single isomer, unassigned) [Example 1-88, (3R,4S)-3-{4-oxo-3-[(4-{(1S or 1R)-2,2,2-trifluoro-1-[(2S or 2R)-2-methylpyrrolidin-1-yl]ethyl}phenyl)amino]-4,5-dihydro-1H-pyrazolo[4,3-c]pyridin-1-yl}tetrahydro-2H-pyran-4-carbonitrile] | 0.09 nM | 0.11 nM | –
8 | N#C[C@H]1CCOC[C@@H]1n1nc(Nc2ccc(C(N3CCNCC3)C(F)(F)F)cc2)c2c(=O)[nH]ccc21 (single isomer, unassigned) [Example 1-39, (3R,4S)-3-[4-oxo-3-({4-[(1S or 1R)-2,2,2-trifluoro-1-piperazin-1-ylethyl]phenyl}amino)-4,5-dihydro-1H-pyrazolo[4,5-c]pyridin-1-yl]tetrahydro-2H-pyran-4-carbonitrile] | 0.17 nM | 0.13 nM | –
9 | CC1CCN1S(=O)(=O)c1ccc(Nc2nn([C@H]3COCC[C@@H]3C#N)c3cc[nH]c(=O)c23)cc1 (single isomer, unassigned) [Example 1-78, (3R,4S)-3-{3-[(4-{[(2S or 2R)-2-methylazetidin-1-yl]sulfonyl}phenyl)amino]-4-oxo-4,5-dihydro-1H-pyrazolo[4,3-c]pyridin-1-yl}tetrahydro-2H-pyran-4-carbonitrile] | 0.24 nM | 0.12 nM | –
10 | N#C[C@H]1CCOC[C@@H]1n1nc(Nc2ccc(C(NC3CCCC3)C(F)(F)F)cc2)c2c(=O)[nH]ccc21 (single isomer, unassigned) [Example 1-85, (3R,4S)-3-[3-({4-[(1R or 1S)-1-(cyclopentylamino)-2,2,2-trifluoroethyl]phenyl}amino)-4-oxo-4,5-dihydro-1H-pyrazolo[4,3-c]pyridin-1-yl]tetrahydro-2H-pyran-4-carbonitrile] | 0.14 nM | 0.12 nM | –
11 | N#C[C@H]1CCOC[C@@H]1n1nc(Nc2ccc(C(N3CCSCC3)C(F)(F)F)cc2)c2c(=O)[nH]ccc21 (single isomer, unassigned) [Example 2-5, (3R,4S)-3-[4-oxo-3-({4-[(1S or 1R)-2,2,2-trifluoro-1-thiomorpholin-4-ylethyl]phenyl}amino)-4,5-dihydro-1H-pyrazolo[4,3-c]pyridin-1-yl]tetrahydro-2H-pyran-4-carbonitrile] | 0.15 nM | 0.14 nM | –
12 | CC(C)CNC(c1ccc(Nc2nn([C@H]3COCC[C@@H]3C#N)c3cc[nH]c(=O)c23)cc1)C(F)(F)F (single isomer, unassigned) [Example 1-90, (3R,4S)-3-{4-oxo-3-[(4-{(1S or 1R)-2,2,2-trifluoro-1-[(2-methylpropyl)amino]ethyl}phenyl)amino]-4,5-dihydro-1H-pyrazolo[4,3-c]pyridin-1-yl}tetrahydro-2H-pyran-4-carbonitrile] | 0.4 nM | 0.21 nM | –
13 | N#C[C@H]1CCOC[C@@H]1n1nc(Nc2ccnc(F)c2)c2c(=O)[nH]ccc21 [Example 1-30, (3R,4S)-3-{3-[(2-fluoropyridin-4-yl)amino]-4-oxo-4,5-dihydro-1H-pyrazolo[4,3-c]pyridin-1-yl}tetrahydro-2H-pyran-4-carbonitrile] | – | 0.25 nM | 4.65 nM
14 | CC1(C)CCCN1S(=O)(=O)c1ccc(Nc2nn([C@H]3COCC[C@@H]3C#N)c3cc[nH]c(=O)c23)cc1 [Example 1-72, (3R,4S)-3-[3-({4-[(2,2-dimethylpyrrolidin-1-yl)sulfonyl]phenyl}amino)-4-oxo-4,5-dihydro-1H-pyrazolo[4,3-c]pyridin-1-yl]tetrahydro-2H-pyran-4-carbonitrile] | – | 0.1 nM | 0.2 nM
15 | C[S+]([O-])c1cc(Nc2nn([C@H]3COCC[C@@H]3C#N)c3cc[nH]c(=O)c23)ccc1F (single isomer, unassigned) [Example 3-3, (3R,4S)-3-(3-((4-fluoro-3-((S or R)-methylsulfinyl)phenyl)amino)-4-oxo-4,5-dihydro-1H-pyrazolo[4,3-c]pyridin-1-yl)tetrahydro-2H-pyran-4-carbonitrile] | 7.44 nM | 1.64 nM | –

These reach a lower IC50 (JAK1). Values come first.

Row | IC50 (JAK2; [1]) | IC50 (JAK1) | IC50 (JAK2; [2]) | Compound
16 | 0.17 nM | 0.05 nM | – | CC1CCN1S(=O)(=O)c1ccc(Nc2nn([C@H]3COCC[C@@H]3C#N)c3cc[nH]c(=O)c23)cc1 (single isomer, unassigned) [Example 1-77, (3R,4S)-3-{3-[(4-{[(2R or 2S)-2-methylazetidin-1-yl]sulfonyl}phenyl)amino]-4-oxo-4,5-dihydro-1H-pyrazolo[4,3-c]pyridin-1-yl}tetrahydro-2H-pyran-4-carbonitrile]
17 | – | 0.04 nM | 0.3 nM | CC(C)(C)OC(=O)CN1Cc2cc(Nc3nn([C@H]4COCC[C@@H]4C#N)c4cc[nH]c(=O)c34)ccc2S1(=O)=O [Example 1-64, tert-butyl [5-({1-[(3R,4S)-4-cyanotetrahydro-2H-pyran-3-yl]-4-oxo-4,5-dihydro-1H-pyrazolo[4,3-c]pyridin-3-yl}amino)-1,1-dioxido-1,2-benzisothiazol-2(3H)-yl]acetate]
18 | 0.11 nM | 0.09 nM | – | N#C[C@H]1CCOC[C@@H]1n1nc(Nc2ccc(C(NC3CCC3)C(F)(F)F)cc2)c2c(=O)[nH]ccc21 (single isomer, unassigned) [Example 1-93, (3R,4S)-3-[3-({4-[(1R or 1S)-1-(cyclobutylamino)-2,2,2-trifluoroethyl]phenyl}amino)-4-oxo-4,5-dihydro-1H-pyrazolo[4,3-c]pyridin-1-yl]tetrahydro-2H-pyran-4-carbonitrile]
19 | – | 0.05 nM | 0.15 nM | CC(C)(C)N1Cc2cc(Nc3nn([C@H]4COCC[C@@H]4C#N)c4cc[nH]c(=O)c34)ccc2S1(=O)=O [Example 1-5, (3R,4S)-3-(3-((2-(tert-butyl)-1,1-dioxido-2,3-dihydrobenzo[d]isothiazol-5-yl)amino)-4-oxo-4,5-dihydro-1H-pyrazolo[4,3-c]pyridin-1-yl)tetrahydro-2H-pyran-4-carbonitrile]
20 | 0.39 nM | 0.06 nM | – | CC(O)(c1ccc(Nc2nn([C@H]3COCC[C@@H]3C#N)c3cc[nH]c(=O)c23)cc1)C(F)(F)F (single isomer, unassigned) [Example 2-3, (3R,4S)-3-[4-oxo-3-({4-[(1R or 1S)-2,2,2-trifluoro-1-hydroxy-1-methylethyl]phenyl}amino)-4,5-dihydro-1H-pyrazolo[4,3-c]pyridin-1-yl]tetrahydro-2H-pyran-4-carbonitrile]
21 | – | 0.07 nM | 0.21 nM | CN(C)S(=O)(=O)c1ccc(Nc2nn([C@H]3COCC[C@@H]3C#N)c3cc[nH]c(=O)c23)cc1 [Example 1-6, 4-((1-((3R,4S)-4-cyanotetrahydro-2H-pyran-3-yl)-4-oxo-4,5-dihydro-1H-pyrazolo[4,3-c]pyridin-3-yl)amino)-N,N-dimethyl-benzenesulfonamide]
22 | – | 0.05 nM | 0.29 nM | N#C[C@H]1CCOC[C@@H]1n1nc(Nc2ccc3c(c2)CN(CC(F)(F)F)S3(=O)=O)c2c(=O)[nH]ccc21 [Example 1-62, (3R,4S)-3-(3-{[1,1-dioxido-2-(2,2,2-trifluoroethyl)-2,3-dihydro-1,2-benzothiazol-5-yl]amino}-4-oxo-4,5-dihydro-1H-pyrazolo[4,3-c]pyridin-1-yl)tetrahydro-2H-pyran-4-carbonitrile]
